From US8937072B2, “Substituted cyanoaniline compounds, preparation and use thereof” (Sinochem Corporation, priority 2011, dated 2015)
Read-outs that look alike come from different tables or passages of the source.

Columns and labels:
wheat powdery mildew = assay: Protectant activity in vivo (whole plant) against wheat powdery mildew; settings: for pest or weed control at 400 µg/mL: Triticum aestivum, 168 h
Protocol: The method is as followed: The whole plant is used in this test. The compound is dissolved in a proper solvent to get mother solution. The proper solvent is selected from acetone, methanol, DMF and so on according to their dissolving capability to the sample. The volume rate of solvent and testing solution (v/v) is equal to or less than 5%. The mother solution is diluted with water containing 0.1% tween-80 to get the testing solution whose concentration is designed. The testing solution is sprayed to the host plant by a special plant sprayer. The plant is inoculated with fungus after 24 hours. According to the infecting characteristic of fungus, the plant is stored in a humidity chamber and then transferred into greenhouse after infection is finished. And the other plants are placed in greenhouse directly. The activity of compound is obtained by eyeballing after 7 days in common.

cucumber downy mildew = assay: Protectant activity in vivo (whole plant) against cucumber downy mildew; settings: for pest or weed control at 12.5 µg/mL / pest or weed control at 25 µg/mL / pest or weed control at 50 µg/mL / pest or weed control at 100 µg/mL / pest or weed control at 400 µg/mL: Cucumis sativus, 168 h; for pest or weed control at 12.5 µg/mL: 12.5 mg/L; for pest or weed control at 25 µg/mL: 25 mg/L; for pest or weed control at 25 µg/mL / pest or weed control at 50 µg/mL / pest or weed control at 100 µg/mL: read-out: the protectant activity (%) against cucumber downy mildew; for pest or weed control at 50 µg/mL: 50 mg/L; for pest or weed control at 100 µg/mL: 100 mg/L
Method in brief: (§1)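 Whole plants sprayed with test solution, water plus 0.1% Tween-80 and no more than 5% solvent, then inoculated with the pathogen after 24 h. Plants held in humidity chamber or directly in greenhouse depending on fungus. Disease control scored by eye at about 7 days.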

corn rust = assay: Protectant activity in vivo (whole plant) against corn rust; settings: for pest or weed control at 6.25 µg/mL / pest or weed control at 25 µg/mL / pest or weed control at 100 µg/mL / pest or weed control at 400 µg/mL: Zea mays, 168 h; for pest or weed control at 6.25 µg/mL: 6.25 mg/L; for pest or weed control at 25 µg/mL: 25 mg/L; for pest or weed control at 100 µg/mL: 100 mg/L
Method in brief: as §1

cucumber gray mold = assay: Activity in vitro (96-well, High Through Put): inhibition rate against cucumber gray mold; type: cell-based; settings: for inhibition at 0.3 µg/mL: 0.3 mg/L; for inhibition at 0.9 µg/mL: 0.9 mg/L; for inhibition at 0.9 µg/mL / inhibition at 2.8 µg/mL / inhibition at 8.3 µg/mL: read-out: the inhibition rate against cucumber gray mold (%); for inhibition at 2.8 µg/mL: 2.8 mg/L; for inhibition at 8.3 µg/mL: 8.3 mg/L; for inhibition at 25 µg/mL: dose 25 mg/L
Method in brief: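 Scored visually at 24 hours relative to control, the readout is pathogen germination or growth. Test solutions used acetone, methanol or DMF as solvent and were mixed with pathogen suspension in a sterile high-throughput format at constant temperature.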

rice blast = assay: microbe, parasite or virus in culture; type: cell-based; settings: Pyricularia oryzae; for inhibition at 0.03 µg/mL: read-out: the inhibition rate against rice blast (%) 0.03 mg/L; for inhibition at 0.1 µg/mL: read-out: the inhibition rate against rice blast (%) 0.1 mg/L; for inhibition at 0.3 µg/mL: read-out: the inhibition rate against rice blast (%) 0.3 mg/L
[1] = 400 mg/L, read-out: the protectant activity (%) against corn rust
[2] = dose 400 mg/L, read-out: protectant activity against corn rust in vivo

| Structure (SMILES) | protectant activity against wheat powdery mildew in vivo (wheat powdery mildew; dose 400 mg/L) [%] | pest or weed control at 400 µg/mL (corn rust; [1]) [%] | pest or weed control at 400 µg/mL (corn rust; [2]) [%] | inhibition at 0.3 µg/mL (cucumber gray mold) [%] | inhibition at 0.9 µg/mL (cucumber gray mold) [%] | inhibition at 2.8 µg/mL (cucumber gray mold) [%] | inhibition at 8.3 µg/mL (cucumber gray mold) [%] | inhibition at 25 µg/mL (cucumber gray mold; in vitro) [%] | pest or weed control at 12.5 µg/mL (cucumber downy mildew) [%] | pest or weed control at 25 µg/mL (cucumber downy mildew) [%] | pest or weed control at 50 µg/mL (cucumber downy mildew) [%] | pest or weed control at 100 µg/mL (cucumber downy mildew) [%] | pest or weed control at 400 µg/mL (cucumber downy mildew; dose 400 mg/L) [%] | further results |
| --- | --- | --- | --- | --- | --- | --- | --- | --- | --- | --- | --- | --- | --- | --- |
| N#Cc1c(F)c(F)c(C#N)c(Nc2ccc(C(F)(F)F)cc2Cl)c1F [Compound C-82] | 100 | – | – | – | – | – | – | – | – | – | – | – | – | protectant activity against cucumber downy mildew in vivo (cucumber downy mildew; dose 400 mg/L): 100% |
| N#Cc1c(F)c(F)c(C#N)c(Nc2ccc(Cl)c(C(F)(F)F)c2)c1F [Compound C-91] | 100 | – | – | – | – | – | – | – | – | – | – | – | – | protectant activity against wheat powdery mildew in vivo (wheat powdery mildew; dose 6.25 mg/L): 70%; protectant activity against wheat powdery mildew in vivo (wheat powdery mildew; dose 100 mg/L): 95% |
| N#Cc1c(F)c(F)c(C#N)c(Nc2c(Cl)cc(C(F)(F)F)cc2Cl)c1F [Compound C-98] | 100 | – | – | – | – | – | – | – | – | – | – | – | – | protectant activity against wheat powdery mildew in vivo (wheat powdery mildew; dose 100 mg/L): 80%; protectant activity against corn rust in vivo (corn rust; dose 400 mg/L): 100%; inhibition rate against cucumber gray mold (cucumber gray mold; in vitro, dose 8.3 mg/L): 80% |
| N#Cc1c(F)c(F)c(Nc2ccccc2)c(F)c1C#N [KC13] | – | 0 | 0 | 0 | 0 | 0 | 0 | 0 | 0 | 0 | 0 | 0 | 0 | pest or weed control at 400 µg/mL (wheat powdery mildew; dose 400 mg/L): 0%; pest or weed control at 6.25 µg/mL (corn rust): 0%; pest or weed control at 25 µg/mL (corn rust): 0%; pest or weed control at 100 µg/mL (corn rust): 0% |
| COc1ccc(Nc2c(Cl)c(F)c(C#N)c(F)c2C#N)cc1 [KC20] | – | – | 0 | 0 | 0 | 0 | 0 | 50 | 0 | 0 | 0 | 0 | 0 | pest or weed control at 400 µg/mL (wheat powdery mildew; dose 400 mg/L): 0% |
| CN(C)c1ccc(Nc2c(Cl)c(F)c(C#N)c(F)c2C#N)cc1 [KC25] | – | 0 | 0 | 0 | 0 | 0 | 0 | 0 | 0 | 0 | 0 | 0 | 0 | pest or weed control at 6.25 µg/mL (corn rust): 0%; pest or weed control at 25 µg/mL (corn rust): 0%; pest or weed control at 100 µg/mL (corn rust): 0%; inhibition at 25 µg/mL (rice blast; read-out: inhibition rate against rice blast): 0%; inhibition at 0.03 µg/mL (rice blast): 0%; inhibition at 0.1 µg/mL (rice blast): 0%; inhibition at 0.3 µg/mL (rice blast): 0% |
| N#Cc1c(Cl)c(Cl)c(Cl)c(C#N)c1Cl [chlorothalonil] | – | 50 | – | 80 | 100 | 100 | 100 | – | – | 30 | 80 | 100 | – | inhibition at 0.03 µg/mL (rice blast): 0%; inhibition at 0.1 µg/mL (rice blast): 30%; inhibition at 0.3 µg/mL (rice blast): 100% |
